Results taken from patent publication US12600713B2, “Crystalline forms of 6-((6,7-dimethoxyquinazolin-4-yl)oxy)-N,2-dimethylbenzofuran-3-carboxamide” (HUTCHMED LIMITED, priority 2014, dated 2026).

Test: Stability of Form I under high temperature, high humidity and illumination conditions (influence factor experiment, 10 days)
Type: physicochemical
Experimental: Determination method: the test sample of Form I prepared in Example 1 was added to a culture dish, which was uncovered and put in a sealed clean container; then the container was placed under the conditions of the temperature of 60° C., the temperature of 25° C. and the relative humidity of 92.5%±5%, and the illumination of 4500 lx±500 lx respectively for 10 days; then sampled, investigated the purity and crystalline form of the sample, and compared the results of the investigation, which were shown in the following table.

- Purity A% (0 day (initial sample, Form I of Example 1)): 98.94 A%
- Purity A% (25° C., relative humidity 92.5 ± 5% RH, open dish, 10 days): 98.94 A%
- Purity A% (60° C., open dish, 10 days): 98.94 A%
- chemical purity and crystalline form after storage (stability conclusion) (high temperature, high humidity and illumination conditions for 10 days): not changed
- Purity A% (illumination 4500 lx ± 500 lx, open dish, 10 days): 98.94 A%
Compound: CNC(=O)c1c(C)oc2cc(Oc3ncnc4cc(OC)c(OC)cc34)ccc12 [Form I, 6-((6,7-dimethoxyquinazolin-4-yl)oxy)-N,2-dimethylbenzofuran-3-carboxamide]
